Data on one molecule can be found in patent US10988523B2, “Modified lipidated Relaxin B chain peptides and their therapeutic use” (Sanofi, priority 2018, dated 2021).

Data set [1] is described as follows: Stability testing of peptides in rat plasma or blood. It is filed as in vitro ADME. To be noted: 5 μM, 37° C. A digest of the protocol: (§1)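 Peptide at 5 µM final was incubated at 37 °C in heparinized rat or human plasma or blood, sampled up to 4 h, and extracted with acetonitrile/1% TFA. HPLC peak areas relative to t0 give % remaining peptide.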
The nature of data set [2]: Stability testing of peptides in human plasma or blood. It is filed as in vitro ADME. The settings on record: 5 μM, 37° C. The essentials:
as §1

The target in another data set is T1, RXFP1 (Homo sapiens, UniProt Q9HBX9).
T1 construct: OVCAR5 cells expressing endogenous RXFP1; endogenous in cells; host or cells: OVCAR5 cells
T1 sequence (Q9HBX9 1-757): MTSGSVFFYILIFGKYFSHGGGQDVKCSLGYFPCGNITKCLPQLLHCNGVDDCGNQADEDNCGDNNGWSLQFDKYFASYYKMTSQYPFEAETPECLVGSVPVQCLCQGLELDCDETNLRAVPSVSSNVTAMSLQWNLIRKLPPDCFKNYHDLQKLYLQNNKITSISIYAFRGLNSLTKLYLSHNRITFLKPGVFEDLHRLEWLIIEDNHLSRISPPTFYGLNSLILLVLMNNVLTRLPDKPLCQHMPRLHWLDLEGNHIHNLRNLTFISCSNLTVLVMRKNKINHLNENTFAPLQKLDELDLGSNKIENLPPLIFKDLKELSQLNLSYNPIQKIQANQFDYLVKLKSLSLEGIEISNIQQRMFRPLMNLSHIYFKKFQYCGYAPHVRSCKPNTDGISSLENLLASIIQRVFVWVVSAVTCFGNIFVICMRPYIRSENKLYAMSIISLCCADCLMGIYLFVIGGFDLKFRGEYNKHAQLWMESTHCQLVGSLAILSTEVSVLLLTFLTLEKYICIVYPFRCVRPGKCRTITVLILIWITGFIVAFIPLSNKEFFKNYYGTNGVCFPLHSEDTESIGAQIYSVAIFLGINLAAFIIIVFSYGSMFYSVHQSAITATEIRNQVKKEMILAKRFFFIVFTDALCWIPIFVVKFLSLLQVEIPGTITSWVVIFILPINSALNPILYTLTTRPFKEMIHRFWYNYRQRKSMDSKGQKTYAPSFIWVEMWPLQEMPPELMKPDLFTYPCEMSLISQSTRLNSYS
The data set can be described thus: OVCAR5 cAMP assay (HTRF), RXFP1 agonist activity. It is filed as cell-based. To be noted: OVCAR-5; maximal cAMP relative to H2-relaxin maximum (100%); read-out: EMax, OVCAR 5 cells (cAMP). The essentials:
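cAMP accumulation readout: after 1 mM IBMX for 40 min, endogenous-RXFP1 OVCAR5 cells got rising peptide concentrations without FCS, 30 min, 37° C, then lysis with HTRF cAMP reagents. Nonlinear regression gave EC50; Emax expressed relative to H2-relaxin maximum, same occasion.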
In general terms: Changes in cAMP serve as a functional read-out for many G protein-coupled receptors.

Data set [3] in a line: Pharmacokinetic (PK) determination after i.v. or s.c. administration to rats. To be noted: Rat PK. It is filed as in vivo, Sprague Dawley rats. The essentials: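 Non-compartmental analysis of plasma LC/MS data (protein precipitation, BLQ taken as zero) gave T½, C0 (i.v.), Cmax/Tmax (s.c.) and F% from dose-corrected AUCs. Dosing: 3 mg/kg s.c. or 1 mg/kg i.v. in PBS to Sprague Dawley rats, purity- and salt-corrected.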

Data set [4] can be described thus: Solubility testing of peptides in buffer. It counts as physicochemical. To be noted: target solubility 10.0 mg/ml. On the procedure: Prior to the testing of solubility of a peptide batch, its purity (HPLC-UV) was determined.
Acetate Buffer 50 mM pH4.5: 0.75 g […], 3H2O (Sigma 57545)+0.35 ml CH3CO2H 100% solution dissolved in Millipore water, adjusted to pH with diluted (1:1) CH3CO2H and diluted to 250 ml with Millipore water.
In a 4 ml Ependorph vial, an accurately weighed sample of compound was diluted in study media to obtain target concentration of 2, 6 or 10 mg/ml of pure compound. The sample vials were shacked (rock 'roll shaker) for ˜19 h. 3004, Aliquots ( ) were filtered through a Millipore “Solvinert” plate (0.45 μm—PTFE hydrophilic).
pH was measured with a micro electrode
Waters Acquity UPLC System with DAD detector
Column: Waters Peptide Column CSH C18 (130 Å; 1.7 μm; 50*2.1 mm)
Column temperature: 60° C.
Full loop (about 5 μL)—overfill factor 5
Weak et Strong wash: H2O/ACN (75/25; V/V); Seal wash: H2O/IsOH (95/5; V/V). Mobile phase:
Solvent A: 0.05% TFA in H2O; Solvent B: 0.035% TFA in CH3CN
Gradient: from 0 to 12 min B=2% to 60%, from 12 to 14 min B=60% to 100%. Column washing 100% B 1 min, column equilibration 2% B 2.5 min.
UV detector: wavelength: 220 nm.

Marks after values point to notes of the source that are not given here. *1 amine or outer side, *2 acyl side, *3 side chain or, on linkers, in order; H or OH if unused. Where a SMILES comes first, the peptide text is derived from it. Side-chain parts run from the residue outwards. [ ]: non-standard residue; d: D form. The star is where a group is joined. γGlu = O=C(O)[C@H](CCC(=O)[*:2])N[*:1]; Palmitoyl = CCCCCCCCCCCCCCCC(=O)*; αMeK = C[C@](N)(CCCCN)C(=O)O; Nle = CCCC[C@H](N)C(=O)O; AEEA = NCCOCCOCC(=O)O; Aib = CC(C)(N)C(=O)O

For the molecule `CCCCCCCCCCCCCCCC(=O)N[C@@H](CCC(=O)N[C@@H](CCC(=O)N[C@@H](CCC(=O)N[C@@H](CCC(=O)NCCOCCOCC(=O)NCCOCCOCC(=O)NCCOCCOCC(=O)NCCOCCOCC(=O)NCCCC[C@H](NC(=O)[C@H](CCCCNC(C)=O)NC(=O)[C@H](C)NC(=O)[C@H](CCCNC(=N)N)NC(=O)[C@](C)(CCCCN)NC(=O)[C@H](CO)NC(=O)[C@H](Cc1ccccc1)NC(=O)[C@@H](NC(=O)[C@H](CO)NC(=O)[C@H](CCCC)NC(=O)CNC(=O)[C@H](CCC(=O)O)NC(=O)C(C)(C)NC(=O)C(C)(C)NC(=O)[C@@H](NC(=O)[C@H](CCCCNC(C)=O)NC(=O)[C@H](C)NC(=O)[C@H](CCCNC(=N)N)NC(=O)[C@@H](NC(=O)[C@H](CCCCN)NC(=O)[C@H](CCC(=O)O)NC(=O)[C@H](CCCNC(=N)N)NC(=O)CNC(=O)[C@H](CCC(=O)O)NC(=O)[C@H](CC(C)C)NC(C)=O)C(C)C)[C@@H](C)CC)[C@@H](C)O)C(N)=O)C(=O)O)C(=O)O)C(=O)O)C(=O)O` [compound 154] (Ac-LEGREKVRAK(Ac)I[Aib][Aib]EG[Nle]STFS[αMeK]RAK(Ac)K([AEEA-AEEA-AEEA-AEEA-γGlu-γGlu-γGlu-γGlu-Palmitoyl])-NH2), the “Rat stability in blood % remaining 1 h” value in data set [1] (rat blood, 1 h) was 99** %. Besides, the “Rat stability in blood % remaining 4 h” value in data set [1] (rat blood, 4 h) is listed as 95** %. Also, the “Rat plasma stability % remaining T = 0” value in data set [1] (rat plasma or blood, T = 0 (reference)) worked out at 100%. Besides, the “Human stability in blood % remaining 1 h” value in data set [2] (human blood, 1 h) is 91** %. For the same molecule, in data set [2] (human blood, 4 h), the “Human stability in blood % remaining 4 h” value was 96** %. Moreover, the “Human Plasma stability % remaining T = 0” value in data set [2] (human plasma or blood, T = 0 (reference)) was found to be 100%. Further, at RXFP1, the Emax (in general, the maximal effect, on the per cent scale that the assay sets) worked out at 92%. Moreover, the “T½” value in data set [3] (1 mg/kg i.v.) is 5.00 h. In data set [3] (1 mg/kg i.v., extrapolated plasma concentration at t=0, read-out: C0), the C0 is 4.52 µM. Also, in data set [3] (3 mg/kg s.c.), the Cmax (commonly the peak of the concentration-time curve) came to 1.89 µM and the “Tmax (-h)” value amounted to 8.0 h. The F % in data set [3] (3 mg/kg s.c. vs 1 mg/kg i.v., dose-corrected AUC ratio) was 72%. In addition, the “Solubility Acetate buffer pH 4.5” value in data set [4] (acetate buffer 50 mM pH 4.5) was more than 10 mg/ml****. The “Solubility phosphate buffer pH 7.4” value in data set [4] (phosphate buffer 50 mM pH 7.4) is listed as more than 10 mg/ml****.
